Patent US20230085307A1, “PYRIDAZINONE COMPOUND AND HERBICIDE” (NISSAN CHEMICAL CORPORATION, priority 2019, published 2023)

Columns and labels:
green foxtail [1] = test: Test Example 4: herbicidal effect by soil treatment (Table 19, symbol G); type: in vivo, green foxtail (Setaria viridis); details: amount of applied herbicide 320 g/ha
Outline: (§1)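 Soil-surface application: an emulsion agent diluted with water to the predetermined dose is sprayed uniformly over seeds lying under roughly 1.5 cm of sterilized diluvial soil. Boxes stay in a greenhouse at 25° C. to 30° C. Three weeks later, each species is graded on previously defined criteria.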

chickweed = test: Test Example 5: herbicidal effect by foliage application, plastic box (Table 20, symbol P); type: in vivo, common chickweed (Stellaria media); details: foliage application, 320 g/ha, three weeks after application
Outline: (§2)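 Sow seeds spot-wise in sterilized diluvial soil; cover with ~1.5 cm soil. Grow 14 days in greenhouse, 25° C. to 30° C. Spray foliage with emulsion diluted to predetermined amount. Rate effect after 3 weeks.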

Japanese bulrush [2] = test: Test Example 1: herbicidal activity, application before weed generation under submerged conditions (Table 16, symbol B); type: in vivo, Japanese bulrush (Schoenoplectus juncoides); details: amount of applied herbicide 320 g/ha
Outline: (§3)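 Submerged Wagner pots (alluvial soil, 4 cm water) sown with weed seeds and planted with 2.5-leaf rice seedlings; emulsifiable concentrate diluted in water applied to water surface on sowing day. Held in greenhouse at 25-30 °C; injury scored 0-5 by herbicidal rate after three weeks.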

Italian ryegrass [3] = test: Test Example 4: herbicidal effect by soil treatment (Table 19, symbol K); type: in vivo, Italian ryegrass (Lolium multiflorum); details: amount of applied herbicide 320 g/ha
Outline: as §1

windgrass = test: Test Example 5: herbicidal effect by foliage application, plastic box (Table 20, symbol L); type: in vivo, windgrass (Apera spica-venti); details: foliage application, 320 g/ha, three weeks after application
Outline: as §2

lambsquarters = test: Test Example 4: herbicidal effect by soil treatment (Table 19, symbol O); type: in vivo, lambsquarters (Chenopodium album); details: amount of applied herbicide 320 g/ha
Outline: as §1

wild oat [4] = test: Test Example 5: herbicidal effect by foliage application, plastic box (Table 20, symbol I); type: in vivo, wild oat (Avena fatua); details: foliage application, 320 g/ha, three weeks after application
Outline: as §2

late watergrass = test: Test Example 1: herbicidal activity, application before weed generation under submerged conditions (Table 16, symbol A); type: in vivo, late watergrass (Echinochloa oryzicola); details: amount of applied herbicide 320 g/ha
Outline: as §3

blackgrass [5] = test: Test Example 5: herbicidal effect by foliage application, plastic box (Table 20, symbol J); type: in vivo, blackgrass (Alopecurus myosuroides); details: foliage application, 320 g/ha, three weeks after application
Outline: as §2

blackgrass [6] = test: Test Example 4: herbicidal effect by soil treatment (Table 19, symbol J); type: in vivo, blackgrass (Alopecurus myosuroides); details: amount of applied herbicide 320 g/ha
Outline: as §1

persian speedwell = test: Test Example 4: herbicidal effect by soil treatment (Table 19, symbol R); type: in vivo, Persian speedwell (Veronica persica); details: amount of applied herbicide 320 g/ha
Outline: as §1

Japanese bulrush [7] = test: Test Example 2: herbicidal activity, application during weed generation under submerged conditions (Table 17, symbol B); type: in vivo, Japanese bulrush (Schoenoplectus juncoides); details: AAH 320 g/ha; application during weed generation, submerged conditions
Outline: (§4)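 3-wk visual-criteria score after one water-surface dose. Emulsion formulation, water-diluted to set rate; applied at 1–2 leaf stage; alluvial soil, 4 cm standing water; seeds co-sown; greenhouse 25–30° C.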

Italian ryegrass [8] = test: Test Example 5: herbicidal effect by foliage application, plastic box (Table 20, symbol K); type: in vivo, Italian ryegrass (Lolium multiflorum); details: foliage application, 320 g/ha, three weeks after application
Outline: as §2

oval-leafed pondweed = test: Test Example 2: herbicidal activity, application during weed generation under submerged conditions (Table 17, symbol C); type: in vivo, oval-leafed pondweed (Monochoria vaginalis); details: AAH 320 g/ha; application during weed generation, submerged conditions
Outline: as §4

green foxtail [9] = test: Test Example 5: herbicidal effect by foliage application, plastic box (Table 20, symbol G); type: in vivo, green foxtail (Setaria viridis); details: foliage application, 320 g/ha, three weeks after application
Outline: as §2

redroot pigweed = test: Test Example 4: herbicidal effect by soil treatment (Table 19, symbol N); type: in vivo, redroot pigweed (Amaranthus retroflexus); details: amount of applied herbicide 320 g/ha
Outline: as §1

southern crabgrass = test: Test Example 5: herbicidal effect by foliage application, plastic box (Table 20, symbol F); type: in vivo, southern crabgrass (Digitaria ciliaris); details: foliage application, 320 g/ha, three weeks after application
Outline: as §2

velvetleaf [10] = test: Test Example 4: herbicidal effect by soil treatment (Table 19, symbol M); type: in vivo, velvetleaf (Abutilon theophrasti); details: amount of applied herbicide 320 g/ha
Outline: as §1

velvetleaf [11] = test: Test Example 5: herbicidal effect by foliage application, plastic box (Table 20, symbol M); type: in vivo, velvetleaf (Abutilon theophrasti); details: foliage application, 320 g/ha, three weeks after application
Outline: as §2

barnyard grass = test: Test Example 5: herbicidal effect by foliage application, plastic box (Table 20, symbol H); type: in vivo, barnyard grass (Echinochloa crus-galli); details: foliage application, 320 g/ha, three weeks after application
Outline: as §2

wild oat [12] = test: Test Example 4: herbicidal effect by soil treatment (Table 19, symbol I); type: in vivo, wild oat (Avena fatua); details: amount of applied herbicide 320 g/ha
Outline: as §1

Row | SMILES | P: chickweed, herbicidal effect grade (chickweed) | Herbicidal effect, B: Japanese bulrush (Japanese bulrush [2]) | L: windgrass, herbicidal effect grade (windgrass) | I: wild oat, herbicidal effect grade (wild oat [4]) | Herbicidal effect, A: late watergrass (late watergrass) | J: blackgrass, herbicidal effect grade (blackgrass [5]) | herbicidal effect rating, B: Japanese bulrush (Japanese bulrush [7]) | K: Italian ryegrass, herbicidal effect grade (Italian ryegrass [8]) | herbicidal effect rating, C: oval-leafed pondweed (oval-leafed pondweed) | G: green foxtail, herbicidal effect grade (green foxtail [9]) | F: southern crabgrass, herbicidal effect grade (southern crabgrass) | M: velvetleaf, herbicidal effect grade (velvetleaf [11]) | H: barnyard grass, herbicidal effect grade (barnyard grass) | further results
1 | CCCC(=O)Oc1c(C)nn(C)c(=O)c1-c1c(-c2ccc3c(c2)OCCO3)sc2cc(F)ccc12 [3-014] | 5 (Herbicidal rate of 90% or more (almost completely withered)) | 3 (Herbicidal rate of 40% or more and less than 70%) | 0 (Herbicidal rate of 5% or less (almost no effect)) | 1 (Herbicidal rate of 5% or more and less than 20%) | 5 (Herbicidal rate of 90% or more (almost completely withered)) | 1 (Herbicidal rate of 5% or more and less than 20%) | 0 (Herbicidal rate of 5% or less (almost no effect)) | 1 (Herbicidal rate of 5% or more and less than 20%) | 5 (Herbicidal rate of 90% or more (almost completely withered)) | 3 (Herbicidal rate of 40% or more and less than 70%) | 3 (Herbicidal rate of 40% or more and less than 70%) | 5 (Herbicidal rate of 90% or more (almost completely withered)) | 3 (Herbicidal rate of 40% or more and less than 70%) | herbicidal effect, G: green foxtail (green foxtail [1]): 0 (Herbicidal rate of 5% or less (almost no effect)); herbicidal effect, K: Italian ryegrass (Italian ryegrass [3]): 0 (Herbicidal rate of 5% or less (almost no effect)); herbicidal effect, O: lambsquarters (lambsquarters): 4 (Herbicidal rate of 70% or more and less than 90%); herbicidal effect, J: blackgrass (blackgrass [6]): 0 (Herbicidal rate of 5% or less (almost no effect)); herbicidal effect, R: persian speedwell (persian speedwell): 5 (Herbicidal rate of 90% or more (almost completely withered)); herbicidal effect, N: redroot pigweed (redroot pigweed): 3 (Herbicidal rate of 40% or more and less than 70%); herbicidal effect, M: velvetleaf (velvetleaf [10]): 0 (Herbicidal rate of 5% or less (almost no effect)); herbicidal effect, I: wild oat (wild oat [12]): 0 (Herbicidal rate of 5% or less (almost no effect))
2 | CCOc1ccc(-c2sc3cc(OC)ccc3c2-c2c(O)c(C)nn(C)c2=O)cc1 [3-072] | 5 (Herbicidal rate of 90% or more (almost completely withered)) | 5 (Herbicidal rate of 90% or more (almost completely withered)) | 0 (Herbicidal rate of 5% or less (almost no effect)) | 0 (Herbicidal rate of 5% or less (almost no effect)) | 1 (Herbicidal rate of 5% or more and less than 20%) | 0 (Herbicidal rate of 5% or less (almost no effect)) | 2 (Herbicidal rate of 20% or more and less than 40%) | 4 (Herbicidal rate of 70% or more and less than 90%) | 3 (Herbicidal rate of 40% or more and less than 70%) | 3 (Herbicidal rate of 40% or more and less than 70%) | 0 (Herbicidal rate of 5% or less (almost no effect)) | 3 (Herbicidal rate of 40% or more and less than 70%) | 3 (Herbicidal rate of 40% or more and less than 70%) | G: green foxtail, herbicidal effect grade (green foxtail [1]): 0 (Herbicidal rate of 5% or less (almost no effect)); K: Italian ryegrass, herbicidal effect grade (Italian ryegrass [3]): 0 (Herbicidal rate of 5% or less (almost no effect)); O: lambsquarters, herbicidal effect grade (lambsquarters): 2 (Herbicidal rate of 20% or more and less than 40%); J: blackgrass, herbicidal effect grade (blackgrass [6]): 0 (Herbicidal rate of 5% or less (almost no effect)); R: persian speedwell, herbicidal effect grade (persian speedwell): 5 (Herbicidal rate of 90% or more (almost completely withered)); N: redroot pigweed, herbicidal effect grade (redroot pigweed): 2 (Herbicidal rate of 20% or more and less than 40%); M: velvetleaf, herbicidal effect grade (velvetleaf [10]): 0 (Herbicidal rate of 5% or less (almost no effect)); I: wild oat, herbicidal effect grade (wild oat [12]): 0 (Herbicidal rate of 5% or less (almost no effect))
